# Columns and labels:
# [1] = tested on: UUO-induced renal fibrosis model mice; assay: Unilateral ureteral obstruction (UUO)-induced renal fibrosis model mice with losartan treatment; assay type: in vivo, C57BL/6 mice; conditions: for body weight: prior to UUO surgery and 1 and 2 weeks post-surgery, among all groups; for level of BUN in serum / level of CRE in serum / swelling of the left kidneys (hydronephrosis) / fibrosis area of kidney (Masson's trichrome staining): 2 weeks after UUO surgery; for level of BUN in serum / level of CRE in serum: compared to control group; for swelling of the left kidneys (hydronephrosis): versus control group; for fibrosis area of kidney (Masson's trichrome staining): versus left kidney of control group (UUO)
# Text: C57BL/6 mice (8-week-old, CLEA) were used. The abdomen of mouse was opened under general anesthesia and the left ureter was ligated. The right ureter was not ligated and the right kidney served as a control. The surgical wound was then closed with a single-layer suture of the peritoneum, muscular layer and skin followed by closure of the surgical wound. UUO-induced renal fibrosis model is known to manifest the symptoms of hydronephrosis in the ligated kidney and then develop interstitial fibrosis caused by interstitial deposition of type IV collagen as well as apoptosis of tubular cells at day 3 post-UUO surgery. Post-UUO surgery mice were divided into three groups: low-dose losartan group (1 mg/kg, n=3), high-dose losartan group (3 mg/kg, n=3) and no losartan administration group (n=3). Low-dose losartan group was given losartan (FUJIFILM Wako Pure Chemical Corporation) in their drinking water at a final concentration of 4.6 mg/L, which providing an estimated daily dose of 1 mg/kg. High-dose losartan group was given losartan in their drinking water at a final concentration of 13.8 mg/L, which providing an estimated daily dose of 3 mg/kg. No losartan administration group was given drinking water without addition of losartan. Body weight was measured prior to UUO surgery and 1 and 2 weeks post-surgery. Mice were euthanized 2 weeks post-surgery. Prior to sacrifice, whole blood was collected from IVC and serum was separated. The levels of serum BUN and CRE were measured. The left and right kidneys were then harvested and photographed. Kidneys were fixed in 4% paraformaldehyde and embedded into paraffin block. Tissue sections of about 5 µm thickness were used for histological analysis. (3) Masson's trichrome staining and Hematoxylin and Eosin staining Tissue sections were deparaffinized and rehydrated. Masson's trichrome staining was performed using Trichrome Stain (Masson) Kit (Sigma-Aldrich) according to the manufacturer's instructions. Hematoxylin and Eosin (HE) staining was performed by a conventional method. Tissue specimens were observed under with an optical microscope (IX71, Olympus). Statistical analysis was performed in the same manner as in Example 1.
# [2] = tested on: liver fibrosis caused by non-alcoholic steatohepatitis; conditions: rats; reported in non-patent literature 4; cited from earlier work
# [3] = tested on: partial inferior vena cava ligation model mice (liver fibrosis); assay: Partial inferior vena cava ligation model mice with low-dose losartan treatment; assay type: in vivo, C57BL/6 mice
# Text: C57BL/6 mice (10-week-old, CLEA) were used. All animal experiments were approved by the Institutional Animal Care and Use Committee of Nagasaki University, and carried out in accordance with the institutional guidelines.
# IVC was separated and a small tube (0.9 mm diameter) was placed along with the anterior surface of IVC ((B) in FIG. 1). The tube was tightly ligated together with the IVC ((C) in FIG. 1), and immediately after that, the tube was gently removed ((D) in FIG. 1). The abdomen was then closed with a suture of the peritoneal muscle/fascia followed by closure of the skin. Removing the 0.9 mm diameter tube from IVC ligation was expected to reduce the cross-sectional area of IVC by about 80% based on Simonetto et al.
# After all procedures, mice were divided into Losartan group (n=6), IVCL group (n=6) and Sham group (n=6). Losartan group was given losartan (FUJIFILM Wako
# Pure Chemical Corporation) in their drinking water at a final concentration of 2.3 mg/L, which providing an estimated daily dose of 0.5 mg/kg. IVCL group was given drinking water without addition of any drug. Treatment was continued until the cessation of the experiments. Sham group received a sham operation including all above steps with the exception of partial IVC ligation, and was given drinking water without addition of any drug.
# Mice were euthanized 8 weeks postoperatively. Prior to sacrifice, the body weight was measured, and whole blood was collected from IVC and serum was separated. The levels of serum ALT and AST were measured. The suprahepatic IVC was then transected and the liver was perfused with PBS through the portal vein to remove circulating blood and fibrinogen. The spleen and liver were harvested and weighed, and the spleen/body and liver/body weight ratios were calculated. Liver tissues were fixed in 4% paraformaldehyde and embedded into paraffin block. Tissue sections of about 5 um thickness were used for histological analysis.
# Liver tissue sections were deparaffinized and rehydrated. Masson's trichrome staining was performed using Trichrome Stain (Masson) Kit (Sigma-Aldrich) according to the manufacturer's instructions, and then observed under an optical microscope (IX71, Olympus).
# Immunohistochemistry analysis on the liver tissues was performed to understand the relevant mechanism. Briefly, liver tissue sections were blocked with 10% bovine serum albumin, and then incubated with primary antibodies (Table 1) overnight at 4°° C., followed by incubation with secondary antibodies (Table 2) for 1 hour at room temperature in the dark. Sections were then mounted with medium containing DAPI. Apoptotic cells were detected by the usage of TUNEL staining kit (Abcam, #ab66108) according to the manufacturer's instructions. Briefly, sections were incubated with DNA labeling solution at 37° C. for 60 min, followed by the addition of PI/RNase A solution for 30 min. Immunofluorescences of stained liver tissues were detected using a fluorescence microscope (FV10i, Olympus). For each staining, at least 10 images were taken from randomly selected fields at 60× magnification, and the mean fluorescence intensity was measured by ImageJ software.
# All the results were presented as mean±SD. Statistical significance was determined by one-way analysis of variance (ANOVA) followed by Turkey's test. P value <0.05 was accepted as significant. GraphPad Prism 8 software was used for statistical analysis.
# [4] = tested on: acute lung injury caused by mechanical stimulation; conditions: reported in non-patent literature 3; cited from earlier work
# [5] = tested on: human hepatic stellate cells (HSCs); assay: Ex vivo hydrostatic pressure loading test in human HSCs; assay type: cell-based; conditions: 10 nM losartan, 50 mmHg hydrostatic pressure 24 hours
# Protocol: Primary human HSCs were purchased from ScienCell Research Laboratories. Cells were expanded by using stellate cell medium (ScienCell Research Laboratories) in a humidified incubator under 5% CO2 and 95% air at 37° C. The third passaged cells were used for the following experiments. A pneumatic pressurizing system (Strex. Inc) was used to induce hydrostatic pressure. Briefly, HSCs were seeded in 60-mm diameter culture dishes (5×10^4 cells/dish) and 4-well culture chamber slides (2×10^4 cells/well). Cells were incubated for 3 days to form about 70% confluent, and then half of the culture dishes and slides were randomly selected to be loaded by 50 mmHg hydrostatic pressure for 24 hours, with or without the addition of 10 nM losartan in medium. The inventors used 50 mmHg for experiments based on their preliminary experiments and a previous report (Yoshino et al., Commun Biol 3:152, 2020, Chen et al., Int J Biol Sci 15:2509-2521, 2019). As controls, non-hydrostatic pressure-loaded groups were provided for each of Losartan addition group and non-Losartan addition group. RT-qPCR was performed to evaluate the expression of RHOA, ROCK1, ROCK2, ACTA2, TGFB1, and COL1A1. Briefly, total RNA was isolated from HSCs using Quick-RNA MicoroPrep Kit, and 1.25 μg of RNA was reverse-transcribed using SuperScript VILO cDNA Synthesis Kit (Thermo Fisher Scientific). Quantitative PCR was carried out with SYBR Green real-time PCR Master Mix (Toyobo). The reactions were performed on a CFX96 real-time PCR System (BIO-RAD). The primer sequences are shown below. GAPDH was used for normalization. HSCs were fixed in 4% paraformaldehyde before blocked by 10% bovine serum albumin. After overnight incubation with the primary antibodies, cells were incubated with secondary antibodies for 1 hour at room temperature, and then mounted with medium containing DAPI. F-actin fibers were stained with TRITC-conjugated phalloidin in mounting medium. Immunofluorescences of stained cells were detected using a fluorescence microscope (FV10i, Olympus). For each staining, 10 images were taken from randomly selected fields at 60× magnification, and the mean fluorescence intensity was measured by ImageJ software. Statistical analysis was performed in the same manner as in Example 1.
# [6] = losartan 0.5 mg/kg/day in drinking water, 8 weeks after partial IVC ligation, among Sham, IVCL and Losartan groups
# [7] = losartan 0.5 mg/kg/day in drinking water, 8 weeks after partial IVC ligation, compared with Sham group
# [8] = losartan 0.5 mg/kg/day, 8 weeks, compared to IVCL group
# [9] = losartan 0.5 mg/kg/day, 8 weeks, versus upregulation in IVCL group
# [10] = compared to pressure-loaded group without losartan
compound,measurement,setting,value
CCCCc1nc(Cl)c(CO)n1Cc1ccc(-c2ccccc2-c2nn[nH]n2)cc1 [losartan],body weight,[1]; high-dose losartan 3 mg/kg/day in drinking water,No significant change
same,level of BUN in serum,[1]; high-dose losartan 3 mg/kg/day,significantly decreased
same,level of CRE in serum,[1]; high-dose losartan 3 mg/kg/day,significantly decreased
same,swelling of the left kidneys (hydronephrosis),[1]; high-dose losartan 3 mg/kg/day,significantly inhibited
same,fibrosis area of kidney (Masson's trichrome staining),[1]; high-dose losartan 3 mg/kg/day,significant decreasing
same,body weight,[1]; low-dose losartan 1 mg/kg/day in drinking water,No significant change
same,level of BUN in serum,[1]; low-dose losartan 1 mg/kg/day,significantly decreased
same,level of CRE in serum,[1]; low-dose losartan 1 mg/kg/day,significantly decreased
same,swelling of the left kidneys (hydronephrosis),[1]; low-dose losartan 1 mg/kg/day,significantly inhibited
same,fibrosis area of kidney (Masson's trichrome staining),[1]; low-dose losartan 1 mg/kg/day,significant decreasing
same,liver fibrosis caused by non-alcoholic steatohepatitis,[2],mitigates
same,level of ALT in serum,[3]; [6],not significantly different
same,level of AST in serum,[3]; [6],not significantly different
same,liver/body weight ratio,[3]; [7],kept at comparable levels
same,spleen/body weight ratio,[3]; [7],kept at comparable levels
same,expression of ROCK2 in liver tissue (immunostaining),"[3]; losartan 0.5 mg/kg/day, 8 weeks, all groups",not substantially changed
same,changes in the lobular architecture of liver,[3]; [8],effectively alleviated
same,fibrotic area of liver tissue (Masson's trichrome staining),[3]; [8],significantly decreased
same,percentage of apoptotic cells in liver tissue (TUNEL staining),"[3]; losartan 0.5 mg/kg/day, 8 weeks, compared to Sham group",not significantly changed
same,expression of α-SMA in liver tissue (immunostaining signal intensity),"[3]; losartan 0.5 mg/kg/day, 8 weeks, in contrast to IVCL group",significantly reduced
same,expression of ROCK1 in liver tissue (immunostaining),[3]; [9],significantly reduced
same,expression of RhoA in liver tissue (immunostaining),[3]; [9],significantly reduced
same,expression of p-MLC2 in liver tissue (immunostaining),[3]; [9],effectively attenuated
same,acute lung injury caused by mechanical stimulation,[4],effectively relieves
same,expression of ROCK2 (immunohistochemistry),[5],no significant change
same,expression of ROCK2 gene (RT-qPCR),[5],no significant change
same,formation of actin stress fibers (phalloidin staining for F-actin),[5],effectively reduced
same,expression of ACTA2 gene (RT-qPCR),[5]; [10],significantly decreased
same,expression of AT1R gene (RT-qPCR),[5]; [10],significantly decreased
same,expression of AT1R in the cytoplasm (immunohistochemistry),[5]; [10],significantly decreased
same,expression of AT1R in the nucleus (immunohistochemistry),[5]; [10],significantly decreased
same,expression of COL1A1 gene (RT-qPCR),[5]; [10],significantly decreased
same,expression of ROCK1 (immunohistochemistry),[5]; [10],significantly decreased
same,expression of ROCK1 gene (RT-qPCR),[5]; [10],significantly decreased
same,expression of RhoA (immunohistochemistry),[5]; [10],significantly decreased
same,expression of RhoA gene (RT-qPCR),[5]; [10],significantly decreased
same,expression of TGF-β1 (immunohistochemistry),[5]; [10],significantly decreased
same,expression of TGFB1 gene (RT-qPCR),[5]; [10],significantly decreased
same,expression of p-MLC2 (immunohistochemistry),[5]; [10],significantly decreased
same,expression of type 1 collagen (immunohistochemistry),[5]; [10],significantly decreased
same,expression of α-SMA (immunohistochemistry),[5]; [10],significantly decreased
